# Experimental data taken from patent publication US12605407B2, “Methods to induce terminal differentiation in stem cells by interfering with DNA replication, methods of inducing pancreatic differentiation, and differentiated cells obtained thereof” (priority 2018, dated 2026).
# Key:
# [1] = tested on: iPSC lines 1018E and 1023A; assay: Beta cell differentiation in iPSC lines with different differentiation potentials, C-peptide positive cells; assay type: cell-based, human
# Experimental: Human pluripotent stem cells were cultured and maintained in feeder-free plates with stemflex medium as described. Three cell lines were involved in this study as shown in Table 2: MEL1 is human embryonic stem cell line; 1023A is a human induced pluripotent stem cell line reprogrammed from a skin fibroblast biopsied of a healthy control; and 1018E is a human induced pluripotent stem cell line reprogrammed from a skin fibroblast biopsied from a type 1 diabetes patient. All human subjects research was reviewed and approved by the Columbia University Institutional Review Board, and the Columbia University Embryonic Stem Cell Committee.
# Beta cells differentiated from human pluripotent stem cell lines as described in Example 2 (Sui et al., 2018b). Indicated compounds that function as cell cycle inhibitors were added individually from day 15 to day 27 with concentration listed below:
# The beta cell clusters were dissociated using TrypLE™ Express into single cells. Cells were fixed with 4% PFA for 10 min and followed by permeabilization at −20° C. with cold methanol for 10 min. […] The cells were filtered with BD Falcon 12×75 mm tube with cell strainer cap (Cat. No. 352235, BD) and subsequently analyzed by flow cytometer. Data were analyzed using Flowjo software. […]
# [2] = tested on: pancreatic progenitors and beta cells; assay: Cell cycle progression profiling by flow cytometry (Edu incubation, Hoechst DNA content, KI67); assay type: cell-based, human
# Experimental: The beta cell clusters were dissociated using TrypLE™ Express into single cells. Cells were fixed with 4% PFA for 10 min and followed by permeabilization at −20° C. with cold methanol for 10 min. Primary antibodies were added at a dilution of 1:100 in autoMACs Rinsing Solution (Cat. No. 130-091-222, Miltenyi Biotec) containing 0.5% BSA at 4° C. for 1 hour. Secondary antibodies were added at a dilution of 1:500 at room temperature for 1 hour. The cells were filtered with BD Falcon 12×75 mm tube with cell strainer cap (Cat. No. 352235, BD) and subsequently analyzed by flow cytometer. Data were analyzed using Flowjo software. Negative controls were performed by only adding secondary antibodies.
# To investigate the mechanism underlying the increased purity of stem cell-derived C-peptide positive cells induced by APH, cell proliferation, apoptosis and differentiation efficiency were examined during differentiation. The cell cycle progression was profiled at day 15, day 18, day 20 and day 27 of beta cell differentiation. In untreated cells, C-peptide positive cells started to form from day 15 (about 5%) (FIG. 2A) and reached a peak at day 20 (about 46%) (FIG. 2B). About 2% of total cells underwent proliferation during 2 hours of Edu incubation at each stage before day 20 and very few C-peptide positive cells were labeled positive for Edu (FIG. 2B). At day 27, the percentage of proliferating cells increased to about 13% and the percentage of C-peptide positive cells decreased due to proliferation of non-C-peptide cells in the clusters (FIG. 2B). When APH was added from day 15 to day 27, the number of C-peptide positive cells was increased as early as day 18, 3 days after addition of APH (FIG. 2C). At day 20, about 60% cells expressed C-peptide and the high expression of C-peptide was maintained until the day 27.
# To determine the cell cycle phase at which aphidicolin arrested pancreatic progenitors and beta cells, flow cytometry combined with Hoechst staining for DNA content and EdU labeling was performed.
# (§1) By the end of day 27, 30% of control cells were in cell cycle through G1 to M phase indicated by the expression of KI67 (a proliferation marker expressed in the cells within cell cycle) and amount of DNA content (FIG. 3A). […] The cell cycle gene expression in insulin expressing cells was also examined.
# [3] = tested on: pancreatic progenitor cells; assay: TUNEL staining for apoptosis and absolute cell numbers; assay type: cell-based
# Text: To determine whether the increased percentage of beta cells was due to cell death of proliferating progenitors or due to increased differentiation from pancreatic progenitor cells, absolute cell numbers and cell death were quantified. Cells at day 17 and day 27 with and without APH treatment were stained for TUNEL. […] Therefore, the increased percentage of C-peptide positive cells was due to the increased differentiation, not the elimination of non-C-peptide positive cells from day 15 to day 20. After day 20, APH maintained the purity of beta cell clusters by preventing the growth of non-beta cells.
# [4] = tested on: stem cell derived beta cells; assay: Gene expression by quantitative realtime PCR in sorted insulin-GFP positive cells; assay type: cell-based, human
# Text: Total RNA was extracted from the cells at beta cell stage (d27) from different conditions using a RNeasy Mini Kit (Cat. No. 74106, QIAGEN). The total RNA was reverse transcripted into cDNA using iScript™ Reverse Transcription Supermix (Cat. No. 170-8841, Bio-Rad), and the cDNA were sequentially used as template with SsoFast™ EvaGreen® Supermix (Cat. No. 172-5202, Bio-Rad) for quantitative realtime PCR.
# as §1
# (§2) Insulin positive cells were isolated based on GFP expression and the expressions of genes related to the maturation of beta cells including PDX1, NKX6.1, MAFA and insulin were evaluated (FIG. 6A). […] In addition, the C-peptide secretion was increased 2-6-fold, with an average of 3-fold, in response to high levels of glucose (FIG. 6D).
# sc-beta cell clusters = assay: Static glucose stimulated C-peptide secretion; assay type: cell-based, human; conditions: 2 mM versus 20 mM glucose
# Experimental: Krebs Ringer buffer (KRB) was prepared by addition of 129 mM NaCl, 4.8 mM KCl, 2.5 mM CaCl2), 1.2 mM MgSO4, 1 mM Na2HPO4, 1.2 mM KH2PO4, 5 mM NaHCO3, 10 mM HEPES and 0.1% BSA in deionized water and was sterilized using 0.22 μm filter. 2 mM and 20 mM glucose solution were prepared in KRB for low glucose and high glucose challenge of sc-beta cell clusters. 10-20 sc-beta cell clusters (about 5×10^5 cells) were collected from control and cells treated with cell cycle inhibitors including APH and treated conditions and pre-incubated in 500 μl low glucose solution for 1 hour. Clusters were then washed once with low glucose solution and sequentially incubated in 200 μl of low glucose and then high glucose solution for 30 minutes. 130 μl supernatant of each condition were collected. Supernatants containing secreted C-peptide stimulated by low and high glucose were processed using Mercodia Ultrasensitive Human C-peptide ELISA kit. Fold changes of C-peptide secretion before and after glucose stimulation were calculated.
# as §2
# [5] = GFP positive cells from APH treated clusters versus GFP positive cells in control clusters
smiles,measurement,setting,value
"C[C@@]1(CO)[C@H](O)CC[C@@]2(C)[C@H]1CC[C@H]1C[C@@H]3C[C@@]12CC[C@]3(O)CO [APH, Aphidicolin]",percentage of C-peptide positive cells,"[1]; both cell lines 1018E and 1023A, after APH treatment versus control",significantly upregulated
same,average percentage of C-peptide positive cells,"[1]; cell line 1018E (differentiates poorly), after APH treatment",38%
same,number of C-peptide positive cells,"[2]; day 18, 3 days after addition of APH (added day 15 to day 27)",increased
same,cells expressing C-peptide,"[2]; day 20, APH added from day 15",about 60%
same,cell cycle phase of arrest,[2]; end of day 27,arrested in G1 phase
same,cells in cell cycle (KI67),[2]; end of day 27,About 5%
same,high expression of C-peptide,"[2]; until day 27, APH added day 15 to day 27",maintained
same,proliferating cells (Edu),"[2]; whole duration of differentiation, APH day 15 to day 27","Very few cells, if any"
same,"cell apoptosis, percentage of TUNEL positive cells","[3]; day 17 and day 27, early and late stage of APH treatment",No significant increase
same,number of total cells compared to control group,[3]; day 20,comparable
same,percentage of C-peptide positive cells compared to control,[3]; day 20,significantly increased
same,expression of MAFA at transcription level,[4]; [5],significantly upregulated
same,expression of NKX6.1 at transcription level,[4]; [5],significantly upregulated
same,expression of PDX1 at transcription level,[4]; [5],significantly upregulated
same,expression of insulin at transcription level,[4]; [5],significantly upregulated
same,expression of CDK4,[4]; insulin positive cells,downregulated
same,expression of Cyclin D1,[4]; insulin positive cells,downregulated
same,expression of P21,[4]; insulin positive cells,upregulated
same,C-peptide secretion increase in response to high levels of glucose,sc-beta cell clusters,2-6 fold
same,"C-peptide secretion increase in response to high levels of glucose, average",sc-beta cell clusters,3 fold
